Laboratory results: US20100099561A1, “HETEROBICYCLIC ALKYLTHIO-BRIDGED ISOXAZOLINES” (E.I. DU PONT DE NEMOURS AND COMPANY, priority 2008, published 2010)

Experiments:
Format in all cases: in vivo
[1] = test system: wheat (Triticum aestivum); assay: Test A postemergence, wheat; conditions: 0 to 100 scale (0 no effect, 100 complete control)
Outline: (§1)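 Visual injury scored 0 (no effect) to 100 (complete control) against untreated plants roughly ten days after greenhouse treatment. Postemergence sprays hit one- to two-leaf plants 2–10 cm high; preemergence was a directed spray onto loam–sand soil, both using surfactant-containing solvent formulations.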

[2] = test system: umbrella sedge (Cyperus difformis); assay: Test B flooded paddy test, umbrella sedge; conditions: Flood, scale 0 to 100
Outline: (§2)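 2-leaf plants; pots flooded 3 cm above soil; compound added to paddy water; depth maintained. Greenhouse 13–15 d. Visual rating vs controls, 0 (no effect) to 100 (complete control); dash = no result.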

corn (Zea mays) [3] = assay: Test A postemergence, corn; conditions: 0 to 100 scale (0 no effect, 100 complete control)
Outline: as §1

rice (Oryza sativa) = assay: Test B flooded paddy test, rice; conditions: Flood, scale 0 to 100
Outline: as §2

[4] = test system: barnyardgrass (Echinochloa crus-galli); assay: Test A preemergence, barnyardgrass; conditions: 0 to 100 scale (0 no effect, 100 complete control)
Outline: as §1

[5] = test system: velvetleaf (Abutilon theophrasti); assay: Test A postemergence, velvetleaf; conditions: 0 to 100 scale (0 no effect, 100 complete control)
Outline: as §1

[6] = test system: wheat (Triticum aestivum); assay: Test A preemergence, wheat; conditions: 0 to 100 scale (0 no effect, 100 complete control)
Outline: as §1

[7] = test system: barnyardgrass (Echinochloa crus-galli); assay: Test B flooded paddy test, barnyardgrass; conditions: Flood
Outline: as §2

[8] = test system: morningglory (Ipomoea spp.); assay: Test A postemergence, morningglory; conditions: 0 to 100 scale (0 no effect, 100 complete control)
Outline: as §1

[9] = test system: morningglory (Ipomoea spp.); assay: Test A preemergence, morningglory; conditions: 0 to 100 scale (0 no effect, 100 complete control)
Outline: as §1

[10] = test system: velvetleaf (Abutilon theophrasti); assay: Test A preemergence, velvetleaf; conditions: 0 to 100 scale (0 no effect, 100 complete control)
Outline: as §1

corn (Zea mays) [11] = assay: Test A preemergence, corn; conditions: 0 to 100 scale (0 no effect, 100 complete control)
Outline: as §1

[12] = test system: ducksalad (Heteranthera limosa); assay: Test B flooded paddy test, ducksalad; conditions: Flood, scale 0 to 100
Outline: as §2

[13] = test system: large crabgrass (Digitaria sanguinalis); assay: Test A postemergence, large crabgrass; conditions: 0 to 100 scale (0 no effect, 100 complete control)
Outline: as §1

[14] = test system: pigweed (Amaranthus retroflexus); assay: Test A postemergence, pigweed; conditions: 0 to 100 scale (0 no effect, 100 complete control)
Outline: as §1

[15] = test system: pigweed (Amaranthus retroflexus); assay: Test A preemergence, pigweed; conditions: 0 to 100 scale (0 no effect, 100 complete control)
Outline: as §1

[16] = test system: barnyardgrass (Echinochloa crus-galli); assay: Test A postemergence, barnyardgrass; conditions: 0 to 100 scale (0 no effect, 100 complete control)
Outline: as §1

[17] = test system: large crabgrass (Digitaria sanguinalis); assay: Test A preemergence, large crabgrass; conditions: 0 to 100 scale (0 no effect, 100 complete control)
Outline: as §1

[18] = test system: giant foxtail (Setaria faberi); assay: Test A preemergence, giant foxtail; conditions: 0 to 100 scale (0 no effect, 100 complete control)
Outline: as §1

[19] = test system: giant foxtail (Setaria faberi); assay: Test A postemergence, giant foxtail; conditions: 0 to 100 scale (0 no effect, 100 complete control)
Outline: as §1

CCn1c(=O)c(C[S+]([O-])C2=NOC(C)(C)C2)nc2ccccc21 (stereo not shown) [Compound 29]
Plant response rating, Wheat ([1]; 125 g ai/ha): 0
Plant response rating, Wheat ([1]; 500 g ai/ha): 0
Plant response rating, Sedge, Umbrella ([2]; 31 g ai/ha): 0
Plant response rating, Sedge, Umbrella ([2]; 62 g ai/ha): 0
Plant response rating, Sedge, Umbrella ([2]; 125 g ai/ha): 0
Plant response rating, Sedge, Umbrella ([2]; 250 g ai/ha): 0
Plant response rating, Corn (corn (Zea mays) [3]; 125 g ai/ha): 0
Plant response rating, Corn (corn (Zea mays) [3]; 500 g ai/ha): 0
Plant response rating, Rice (rice (Oryza sativa); 31 g ai/ha): 0
Plant response rating, Rice (rice (Oryza sativa); 62 g ai/ha): 0
Plant response rating, Rice (rice (Oryza sativa); 125 g ai/ha): 0
Plant response rating, Rice (rice (Oryza sativa); 250 g ai/ha): 0
Plant response rating, Barnyardgrass ([4]; 125 g ai/ha): 0
Plant response rating, Barnyardgrass ([4]; 500 g ai/ha): 0
Plant response rating, Velvetleaf ([5]; 125 g ai/ha): 0
Plant response rating, Velvetleaf ([5]; 500 g ai/ha): 0
Plant response rating, Wheat ([6]; 125 g ai/ha): 0
Plant response rating, Wheat ([6]; 500 g ai/ha): 0
Plant response rating, Barnyardgrass ([7]; 31 g ai/ha, scale 0 to 100): 0
Plant response rating, Barnyardgrass ([7]; 62 g ai/ha, scale 0 to 100): 0
Plant response rating, Barnyardgrass ([7]; 125 g ai/ha, scale 0 to 100): 0
Plant response rating, Barnyardgrass ([7]; 250 g ai/ha, scale 0 to 100 (0 no effect, 100 complete control)): 0
Plant response rating, Morningglory ([8]; 125 g ai/ha): 0
Plant response rating, Morningglory ([8]; 500 g ai/ha): 0
Plant response rating, Morningglory ([9]; 125 g ai/ha): 0
Plant response rating, Morningglory ([9]; 500 g ai/ha): 0
Plant response rating, Velvetleaf ([10]; 125 g ai/ha): 0
Plant response rating, Velvetleaf ([10]; 500 g ai/ha): 0
Plant response rating, Corn (corn (Zea mays) [11]; 125 g ai/ha): 0
Plant response rating, Ducksalad ([12]; 31 g ai/ha): 0
Plant response rating, Ducksalad ([12]; 62 g ai/ha): 0
Plant response rating, Ducksalad ([12]; 125 g ai/ha): 0
Plant response rating, Ducksalad ([12]; 250 g ai/ha): 20
Plant response rating, Crabgrass, Large ([13]; 125 g ai/ha): 0
Plant response rating, Crabgrass, Large ([13]; 500 g ai/ha): 0
Plant response rating, Pigweed ([14]; 125 g ai/ha): 0
Plant response rating, Pigweed ([14]; 500 g ai/ha): 0
Plant response rating, Pigweed ([15]; 125 g ai/ha): 0
Plant response rating, Pigweed ([15]; 500 g ai/ha): 0
Plant response rating, Barnyardgrass ([16]; 125 g ai/ha): 10
Plant response rating, Barnyardgrass ([16]; 500 g ai/ha): 20
Plant response rating, Crabgrass, Large ([17]; 125 g ai/ha): 0
Plant response rating, Crabgrass, Large ([17]; 500 g ai/ha): 0
Plant response rating, Foxtail, Giant ([18]; 125 g ai/ha): 0
Plant response rating, Foxtail, Giant ([18]; 500 g ai/ha): 0
Plant response rating, Foxtail, Giant ([19]; 125 g ai/ha): 0
Plant response rating, Foxtail, Giant ([19]; 500 g ai/ha): 0

CC1(C)CC(S(=O)(=O)Cc2c(C(F)(F)Cl)nc3n(c2=O)CCCC3)=NO1 [Compound 30]
Plant response rating, Wheat ([1]; 125 g ai/ha): 0
Plant response rating, Wheat ([1]; 500 g ai/ha): 50
Plant response rating, Sedge, Umbrella ([2]; 31 g ai/ha): 0
Plant response rating, Sedge, Umbrella ([2]; 125 g ai/ha): 0
Plant response rating, Corn (corn (Zea mays) [3]; 125 g ai/ha): 0
Plant response rating, Corn (corn (Zea mays) [3]; 500 g ai/ha): 0
Plant response rating, Rice (rice (Oryza sativa); 31 g ai/ha): 0
Plant response rating, Rice (rice (Oryza sativa); 125 g ai/ha): 0
Plant response rating, Barnyardgrass ([4]; 125 g ai/ha): 50
Plant response rating, Barnyardgrass ([4]; 500 g ai/ha): 100
Plant response rating, Velvetleaf ([5]; 125 g ai/ha): 20
Plant response rating, Velvetleaf ([5]; 500 g ai/ha): 50
Plant response rating, Wheat ([6]; 125 g ai/ha): 0
Plant response rating, Wheat ([6]; 500 g ai/ha): 50
Plant response rating, Barnyardgrass ([7]; 31 g ai/ha, scale 0 to 100): 0
Plant response rating, Barnyardgrass ([7]; 125 g ai/ha, scale 0 to 100): 0
Plant response rating, Morningglory ([8]; 125 g ai/ha): 10
Plant response rating, Morningglory ([8]; 500 g ai/ha): 50
Plant response rating, Morningglory ([9]; 125 g ai/ha): 30
Plant response rating, Morningglory ([9]; 500 g ai/ha): 40
Plant response rating, Velvetleaf ([10]; 125 g ai/ha): 40
Plant response rating, Velvetleaf ([10]; 500 g ai/ha): 60
Plant response rating, Corn (corn (Zea mays) [11]; 125 g ai/ha): 0
Plant response rating, Corn (corn (Zea mays) [11]; 500 g ai/ha): 0
Plant response rating, Ducksalad ([12]; 31 g ai/ha): 0
Plant response rating, Ducksalad ([12]; 125 g ai/ha): 0
Plant response rating, Crabgrass, Large ([13]; 125 g ai/ha): 60
Plant response rating, Crabgrass, Large ([13]; 500 g ai/ha): 80
Plant response rating, Pigweed ([14]; 125 g ai/ha): 50
Plant response rating, Pigweed ([14]; 500 g ai/ha): 60
Plant response rating, Pigweed ([15]; 125 g ai/ha): 70
Plant response rating, Pigweed ([15]; 500 g ai/ha): 100
Plant response rating, Barnyardgrass ([16]; 125 g ai/ha): 60
Plant response rating, Barnyardgrass ([16]; 500 g ai/ha): 80
Plant response rating, Crabgrass, Large ([17]; 125 g ai/ha): 90
Plant response rating, Crabgrass, Large ([17]; 500 g ai/ha): 100
Plant response rating, Foxtail, Giant ([18]; 125 g ai/ha): 90
Plant response rating, Foxtail, Giant ([18]; 500 g ai/ha): 100
Plant response rating, Foxtail, Giant ([19]; 125 g ai/ha): 60
Plant response rating, Foxtail, Giant ([19]; 500 g ai/ha): 80

CC1(C)CC([S+]([O-])Cc2c(C(F)(F)Cl)nc3n(c2=O)CCCC3)=NO1 (stereo not shown) [Compound 32]
Plant response rating, Wheat ([1]; 125 g ai/ha): 0
Plant response rating, Wheat ([1]; 500 g ai/ha): 0
Plant response rating, Sedge, Umbrella ([2]; 31 g ai/ha): 0
Plant response rating, Sedge, Umbrella ([2]; 125 g ai/ha): 0
Plant response rating, Corn (corn (Zea mays) [3]; 125 g ai/ha): 0
Plant response rating, Corn (corn (Zea mays) [3]; 500 g ai/ha): 0
Plant response rating, Rice (rice (Oryza sativa); 31 g ai/ha): 0
Plant response rating, Rice (rice (Oryza sativa); 125 g ai/ha): 0
Plant response rating, Barnyardgrass ([4]; 125 g ai/ha): 20
Plant response rating, Barnyardgrass ([4]; 500 g ai/ha): 70
Plant response rating, Velvetleaf ([5]; 125 g ai/ha): 0
Plant response rating, Velvetleaf ([5]; 500 g ai/ha): 10
Plant response rating, Wheat ([6]; 125 g ai/ha): 0
Plant response rating, Wheat ([6]; 500 g ai/ha): 0
Plant response rating, Barnyardgrass ([7]; 31 g ai/ha, scale 0 to 100): 0
Plant response rating, Barnyardgrass ([7]; 125 g ai/ha, scale 0 to 100): 0
Plant response rating, Morningglory ([8]; 125 g ai/ha): 40
Plant response rating, Morningglory ([8]; 500 g ai/ha): 50
Plant response rating, Morningglory ([9]; 125 g ai/ha): 0
Plant response rating, Morningglory ([9]; 500 g ai/ha): 0
Plant response rating, Velvetleaf ([10]; 125 g ai/ha): 0
Plant response rating, Velvetleaf ([10]; 500 g ai/ha): 0
Plant response rating, Corn (corn (Zea mays) [11]; 125 g ai/ha): 0
Plant response rating, Corn (corn (Zea mays) [11]; 500 g ai/ha): 0
Plant response rating, Ducksalad ([12]; 31 g ai/ha): 0
Plant response rating, Ducksalad ([12]; 125 g ai/ha): 0
Plant response rating, Crabgrass, Large ([13]; 125 g ai/ha): 10
Plant response rating, Crabgrass, Large ([13]; 500 g ai/ha): 40
Plant response rating, Pigweed ([14]; 125 g ai/ha): 0
Plant response rating, Pigweed ([14]; 500 g ai/ha): 30
Plant response rating, Pigweed ([15]; 125 g ai/ha): 0
Plant response rating, Pigweed ([15]; 500 g ai/ha): 0
Plant response rating, Barnyardgrass ([16]; 125 g ai/ha): 10
Plant response rating, Barnyardgrass ([16]; 500 g ai/ha): 40
Plant response rating, Crabgrass, Large ([17]; 125 g ai/ha): 50
Plant response rating, Crabgrass, Large ([17]; 500 g ai/ha): 80
Plant response rating, Foxtail, Giant ([18]; 125 g ai/ha): 30
Plant response rating, Foxtail, Giant ([18]; 500 g ai/ha): 80
Plant response rating, Foxtail, Giant ([19]; 125 g ai/ha): 0
Plant response rating, Foxtail, Giant ([19]; 500 g ai/ha): 50
